Like-named read-outs stand apart in the source and are kept apart here.

The values that follow come from patent US4578382A, “4-acylamino-1-azaadamantanes, and compositions for use thereof in medicine” (Etablissements Nativelle S.A., priority 1981, dated 1986).

Data set [1] is described as follows: Acute toxicity in the mouse (LD 50, Litchfield and Wilcoxon). The following applies: in vivo. Here is the method:
The acute toxicity of the derivatives of the invention were studied by intraperitoneal administration (I.P.) on the mouse (10 animals, 5 males and 5 females per dose) and calculation of the lethal dose 50 (LD 50) in accordance with the method of Litchfield and Wilcoxon (J. Pharmacol. 96, 99-113 (1949)).
In certain cases (derivatives of Examples 4, 6, 9), the LD 50 was also calculated after oral administration (P.O.) of the derivatives.

Data set [2] deals with anesthetized dog. In words: Electrophysiological studies on the anesthetized dog. The class given is in vivo. The following applies: i.v., doses 0.1 to 1.4 mg/kg; 1 evaluation. Here is the method:
This study was carried out on dogs anesthetized with pentobarbital, with a closed thorax, by means of bipolar catheter-electrodes introduced into the cardiac cavities by transcutaneous venous and arterial means. The surface electrocardiogram (standard derivation D2) is recorded permanently.
By means of a programmable JANSEN (R) stimulator, the following parameters may be measured:
spontaneous cardiac frequency (FC);
sinus recuperation time (SRTc) after auricular stimulation imposed at 160 b/mn for 1 mn;
intracardiac conduction times (auriculohisien at a constant frequency, His-Purkinje, intraventricular);
the effective and functional refractory periods measured at an imposed constant frequency, with the extrastimulus method.
During the electrophysiological study, the derivatives were injected intravenously for 2 minutes for each dose and at 30 minute intervals between each dose. The doses are expressed as a cumulative value and as a base term.
The measurement of the various parameters was carried out before the injection of the first dose (control period) and from 10 to 28 minutes after the injection of each dose of the substance. The results are expressed as a percentage of variation in relation to the control period.

Data set [3] has as its system ventricular arrhythmias with adrenalin. Description: Test with adrenalin after experimental infarct. The class given is in vivo, dog. The text has this:
(§1) Narcisse et al, Ann. Pharma. Fr., 37, 325-330 (1979), in the rat by the aconitine intoxication test of S. Witchitz et al, Coeur Med. Int., X(2), 281-286, (1971) and in the dog by the Harris test described in Circulation, 1, 1318, (1950) and by the test with adrenalin after experimental infarct of I. J. Steffe et al, J. Pharmacol. Exp. Ther., 214, 50-57 (1980).
2 to 5 days after an experimental infarct, the effects of discontinuous injections (in intravenous bolus of […] of basic adrenalin) of adrenalin were observed on the electrocardioagram of the conscious dog.
During a first phase (control) of the experiment, three successive injections of adrenalin were given and, in the 2 minutes following each injection, the frequency of the ventricular extrasystoles was measured. In this manner, by increasing the dose of adrenalin as necessary, it was possible to determine the dose which caused the appearance of ventricular extrasystoles at a higher frequency than or equal to half the total number of ventricular systoles.
After injection of the derivative to be tested, the same dose of adrenalin was reinjected after 5 minutes, then 30 minutes, 60 minutes, 90 minutes, etc., and its effects were compared to those observed during the control period.
The results therein are expressed as a percentage of extrasystoles (on the total number of systoles) measured during the 2 minutes following the injection of adrenalin before and after the administration of the derivative to be tested.

The test system of data set [4] is ventricular arrhythmias and death induced by the aconitine. Description: Aconitine intoxication test in the anesthetized rat. The class given is in vivo. The following applies: i.v., vs untreated control.
Description: as §1
The anesthetized rat was intoxicated with an intravenous perfusion of aconitine while its electrocardiogram (ECG) was permanently recorded. During the perfusion at constant rate, the time necessary for the appearance of ventricular arrhythmias, successive extrasystoles (ESV), then stable ventricular tachycardium (TV) and the time within which the animal died were measured.
The animals were divided into a control group (untreated) and treated groups (different doses). The results are expressed as a percentage of prolonging the time of appearance of the arrhythmias and of death of the treated groups in reaction to the control group.
The results obtained are shown in Table 4 below and express the percentage of prolongation of the time of appearance of ventricular arrhythmias (ventricular extrasystoles and ventricular tachycardiums), and of the death, induced by the aconitine after an intravenous injection (I.V.) of several derivatives of the invention, in relation to a group of untreated control animals.

Data set [5] has as its system anesthetized dog. In words: Hemodynamic (cardiovascular) tolerance in the anesthetized dog. As to conditions: i.v.; for Cardiac Flow, percentage of variation / Cardiac Frequency, percentage of variation / Systolic Arterial Pressure, percentage of variation / Total Peripheral Resistances, percentage of variation / dp/dt/p Left Ventricular, percentage of variation: vs control period. Format: in vivo. Here is the method:
The hemodynamic tolerance of the derivatives of the invention was studied on dogs anesthesized with sodium pentobarbital. Endocavitary pressures were measured by means of catheters connected to Statham sensors while external recording of the electrocardiogram (E.C.G.) provided the measurement of cardiac frequency. Cardiac flow was measured by means of an electromagnetic sensor placed on the beginning of the aorta. The total peripheral resistances R were calculated from the value of the average aortic pressure (P) and the cardiac flow (Q) in accordance with the formula R=P/Q.
After measurement of the parameters during a control period, the derivatives were injected intravenously in cumulative doses (30 minute interval between doses). The variations of the parameters in relation to the control period were measured within 20 and 30 minutes after each injection and are expressed as a percentage of variation in relation to the control.
Table 2 summarizes the variations in hemodynamic parameters observed between the first and last injections.

Data set [6] in a line: Lawson test (cardiac antifibrillatory power, chloroform). As to conditions: in vivo, ip; mouse, intraperitoneal; read-out: Maximum Dose Tolerated.
In data set [7] the test system is anoxic ventricular fibrillation. The data set is described as above. Format: in vivo. The following applies: ip; mouse, intraperitoneal, 10 minutes before chloroform. As for the experimental part:
The Lawson test is a test for the study of the cardiac antifibrillatory power of the derivatives. The mice (20 per group) received an intraperitoneal injection of the derivative 10 minutes before being placed in a chloroform-saturated atmosphere. Upon respiratory arrest, the thorax was opened (5 to 10 seconds) and whether or not the heart was in ventricular fibrillation was checked. The efficacy dose 50 (ED 50) of the derivative being studied is the dose which protects half the mice against anoxic ventricular fibrillation.

Setting [8] is: ip, intraperitoneal, read-out: LD 50 I.P.
Where [9] appears, read: 1.3 mg/kg, control period 85% of ESV.
[10] abbreviates: cumulative doses 0.1 to 1 mg/kg.
[11] abbreviates: 10 mg/kg, control period 40% of ESV.
The mark [12] stands for this setting: 4 mg/kg, control period 71% of ESV.
Setting [13] is: cumulative doses 0.3 to 10 mg/kg.

Turning to `CC1(NC(=O)CC(c2ccccc2)c2ccccc2)C2CC3CC1CN(C2)C3(C)C` (single isomer, unassigned) [Example 6, N-(3,3-diphenylpropionyl)-4-amino-4,8,8-trimethyl-1-azaadamantane], the LD50 in data set [1] (setting [8]) stood at 51 mg/kg. Moreover, in data set [1] (oral, read-out: LD 50 P.O.), the LD50 came out at 380 mg/kg. Moreover, in data set [2], the “F.C. (cardiac frequency), variation” value is reported as 0 to +32%; the “HV (time of His-Purkinje conduction), variation” value is recorded as 0 to +92%; the “PREA (effective auricular refractory period), variation” value is listed as “+18 to +50%”; the “PREV (effective ventricular refractory period), variation” value was “+10 to +20%”. Besides, in data set [2], the “QRS (time of intraventricular conduction), variation” value was 0 to +50% and the “St-H (time of auriculohisien conduction), variation” value is 0 to +25%. Moreover, in data set [3] (setting [9]), the “ESV Percentage at 5 min” value was determined as 29%, the “ESV Percentage at 30 min” value came out at 17% and the “ESV Percentage at 60 min” value was 17%. Also, in data set [4] (1 mg/kg), the “Prolongation of time of appearance of ventricular extrasystoles (ESV)” value (“Prolongation of time of appearance … (ESV)” for short) was “+52%”, the “Prolongation of time of appearance of ventricular tachycardium (TV)” value (“Prolongation of time of appearance … (TV)” for short) is “+93%” and the “Prolongation of time to death” value is recorded as “+69%”. In data set [4] (2 mg/kg), the “Prolongation of time of appearance … (ESV)” value is reported as “+67%”, the “Prolongation of time of appearance … (TV)” value is listed as “+139%” and the “Prolongation of time to death” value is listed as “+97%”. The “Cardiac frequency, maximum variation” value in data set [5] (anesthetized dog) was “+10%”. Besides, in data set [5] (setting [10]), the “Cardiac Flow, percentage of variation” value was -3 to -18%; the “Cardiac Frequency, percentage of variation” value (from here on “Cardiac Frequency, percentage”) is -3 to +10%; the “Systolic Arterial Pressure, percentage of variation” value is listed as -8 to -16%; the “Total Peripheral Resistances, percentage of variation” value worked out at 0%. Also, in data set [5] (setting [10]), the “dp/dt/p Left Ventricular, percentage of variation” value is reported as -6 to -13%.
Consider `CC1(NC(=O)c2ccccc2)C2CC3CC1CN(C2)C3(C)C` (centres unmarked) [Example 7, 4-N-benzoylamino-4,8,8-trimethyl-1-azaadamantane], for which, in data set [6], the MTD came to 150 mg/kg. The LD50 in data set [1] (setting [8]) worked out at 230 mg/kg. In data set [4] (5 mg/kg), the “Prolongation of time of appearance … (ESV)” value was “+59%”, the “Prolongation of time of appearance … (TV)” value was “+53%” and the “Prolongation of time to death” value was “+29%”. Moreover, in data set [4] (10 mg/kg), the “Prolongation of time of appearance … (ESV)” value is listed as “+35%”, the “Prolongation of time of appearance … (TV)” value is listed as “+35%” and the “Prolongation of time to death” value was “+45%”. Also, in data set [4] (20 mg/kg), the “Prolongation of time of appearance … (ESV)” value was “+111%”, the “Prolongation of time of appearance … (TV)” value was “+105%” and the “Prolongation of time to death” value is “+89%”. The 50% effective dose (ED50) (commonly the dose at which the effect has come halfway, by size or by number of responders) in data set [7] is 76 mg/kg.
Consider `COc1ccc(CCC(=O)NC2(C)C3CC4CC2CN(C3)C4(C)C)cc1` (centres unmarked) [Example 5, N-[3-(p-methoxy-phenyl)propionyl]-4-amino-4,8,8-trimethyl-1-azaadamantane], for which the MTD in data set [6] turned out to be 200 mg/kg. In addition, in data set [1] (setting [8]), the LD50 worked out at 250 mg/kg. Further, in data set [3] (setting [11]), the “ESV Percentage at 5 min” value is on record as 9%, the “ESV Percentage at 30 min” value was determined as 14% and the “ESV Percentage at 60 min” value came out at 16%. Further, in data set [4] (5 mg/kg), the “Prolongation of time of appearance … (ESV)” value is “+41%”, the “Prolongation of time of appearance … (TV)” value is on record as “+20%” and the “Prolongation of time to death” value is “+21%”. In addition, in data set [4] (10 mg/kg), the “Prolongation of time of appearance … (ESV)” value is “+51%”, the “Prolongation of time of appearance … (TV)” value is listed as “+48%” and the “Prolongation of time to death” value was “+36%”. In data set [4] (20 mg/kg), the “Prolongation of time of appearance … (ESV)” value is given as “+65%”, the “Prolongation of time of appearance … (TV)” value was “+54%” and the “Prolongation of time to death” value is on record as “+50%”. In data set [7], this molecule had an ED50 of 61 mg/kg. The “Cardiac frequency, in words” value in data set [5] (anesthetized dog) is “the frequency does not change”. Also, in data set [5] (cumulative doses 1 to 10 mg/kg), the “Cardiac Flow, percentage of variation” value is on record as “+4 to -8%”; the “Cardiac Frequency, percentage” value worked out at 0%; the “Systolic Arterial Pressure, percentage of variation” value was 0 to +3%; the “Total Peripheral Resistances, percentage of variation” value is reported as -6 to +11%. In data set [5] (cumulative doses 1 to 10 mg/kg), the “dp/dt/p Left Ventricular, percentage of variation” value is recorded as “+2 to -15%”.
For `COc1ccc(C(=O)NC2(C)C3CC4CC2CN(C3)C4(C)C)cc1` (centres unmarked) [Example 8, N-(p-methoxybenzoyl)-4-amino 4,8,8-trimethyl-1-azaadamantane], the MTD in data set [6] came to 100 mg/kg. Further, the LD50 in data set [1] (setting [8]) stood at 250 mg/kg. Also, in data set [3] (setting [12]), the “ESV Percentage at 5 min” value is given as 35%, the “ESV Percentage at 30 min” value is recorded as 36% and the “ESV Percentage at 60 min” value came to 53%. For the same molecule, in data set [4] (5 mg/kg), the “Prolongation of time of appearance … (ESV)” value is given as “+45%”, the “Prolongation of time of appearance … (TV)” value is “+43%” and the “Prolongation of time to death” value is listed as “+46%”. In data set [4] (10 mg/kg), the “Prolongation of time of appearance … (ESV)” value was “+71%”, the “Prolongation of time of appearance … (TV)” value is listed as “+84%” and the “Prolongation of time to death” value is recorded as “+215%”. For the same molecule, in data set [4] (20 mg/kg), the “Prolongation of time of appearance … (ESV)” value was “+98%”, the “Prolongation of time of appearance … (TV)” value is reported as “+107%” and the “Prolongation of time to death” value is “+112%”. In addition, in data set [7], it took a dose of 49 mg/kg to reach the 50% effect level (ED50). The “Cardiac frequency, maximum variation” value in data set [5] (anesthetized dog) is reported as -15%. In addition, in data set [5] (setting [13]), the “Cardiac Flow, percentage of variation” value is recorded as -7 to -22%; the “Cardiac Frequency, percentage” value is given as -7 to -15%; the “Systolic Arterial Pressure, percentage of variation” value is -6 to -21%; the “Total Peripheral Resistances, percentage of variation” value stood at 0%. Besides, the “dp/dt/p Left Ventricular, percentage of variation” value in data set [5] (setting [13]) was 0 to -28%.
